Source: US7332200B1, “Permeabilizing biofilms” (The General Hospital Corporation, priority 1999, dated 2008)

Test system: A. viscosus in biofilms
Assay: Phototoxicity (bacterial killing, colony counts) of methylene blue on A. viscosus biofilms with red light, with or without a stress wave
Type: cell-based
Procedure: The biofilms were grown on enamel surfaces as described in Example 1. Biofilms were incubated with methylene blue for 1 or 5 minutes and exposed to stress waves (one pulse), after which they were exposed to 666 nm red light with a fluence of 15 J/cm^2 at an irradiance of 50 mW/cm^2. In control samples, biofilms were treated only with methylene blue, or were treated with methylene blue and exposed to red light, but without stress waves. An argon ion laser with an emission of 514.5. nm was used to pump a dye laser. The laser light was coupled into a 1.0 mm quartz fiber and appropriate spot sizes were created with an objective lens.
After illumination, adherent bacteria from the samples as treated above were scraped from the enamel surfaces with a sterile blade and dispersed in trypticase soy broth. Serial dilutions were prepared, and 100 μl aliquots were spread over the surfaces of blood agar plates. Survival fractions from each biofilm were calculated by counting the colonies on the plates and dividing by the number of colonies from dark controls incubated with the drug and kept at room temperature for periods equal to irradiation time. Other controls were: 1) biofilms untreated with methylene blue, light, or stress waves; 2) biofilms exposed only to a stress wave; 3) biofilms exposed to light without methylene blue; and 4) biofilms exposed to light after incubation with methylene blue.

SMILES: CN(C)c1ccc2nc3ccc(=[N+](C)C)cc-3sc2c1 [methylene blue]
- bacteria associated with biofilms killed (five-minute incubation with 50 μg/ml methylene blue, red light, no stress wave): 57%
- bacteria associated with biofilms killed (five-minute incubation with 50 μg/ml methylene blue, stress wave (one pulse) and 666 nm red light 15 J/cm^2): 99%
- bacteria associated with biofilms killed (one-minute incubation with 50 μg/ml methylene blue, red light, no stress wave): 34%
- bacteria associated with biofilms killed (one-minute incubation with 50 μg/ml methylene blue, stress wave (one pulse) and red light): 96.5%
